In US20260007613A1, “LONG-ACTING LOW-TOXICITY NOVEL CATIONIC LIPID COMPOUNDS AND COMPOSITION THEREOF” (BEIJING YOUCAREKECHUANG PHARMACEUTICAL TECHNOLOGY CO., LTD., priority 2023, published 2026):
Values joined by “and” are separate entries in the source; they are usually repeats but may differ in a detail not shown here. Equal entries are not always repeated.

Tests used:
[1] = Particle size and polydispersity index (PDI) of lipid nanoparticles by dynamic light scattering; type: physicochemical; details: LNP formulation prepared from the cationic lipid, 25° C.
Description: The particle size and polydispersity index (PDI) were determined by dynamic light scattering using Malvern laser particle size analyzer.
10 μL of the liposome solution was weighed, diluted to 1 mL with RNase-free deionized water, and added to the sample pool. Each sample was measured in triplicate. The measurement conditions were: […] scattering angle, and 25° C.

[2] = tested on: 293T cells; assay: Fluorescent detection of Fluc-mRNA (cell transfection efficiency of LNP formulations); type: cell-based
Procedure, shortened: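 293T cells were seeded at 10,000/well and cultured overnight, then given LNP carrying […] Fluc-mRNA (cationic:neutral:structured:polymer-conjugated lipid 49:10:39.5:1.5 molar) for 24 h. Luminescence was developed with […] and imaged on IVIS.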

[3] = tested on: liver; assay: Distribution of liposomes in mice: protein expression in the liver (live imaging); type: in vivo; details: at 6 h
Description: The LNP formulation containing […] Fluc-mRNA was injected intramuscularly into female BALB/C mice aged 4 to 6 weeks old and weighed 17 to 19 g, and the mice were intraperitoneally injected with fluorescent imaging substrate at specific time points after administration (6 h, 24 h, 48 h and 7 d), where the mice were free to move for 5 minutes, and then the average radiation intensity (corresponding to fluorescence expression intensity) of the protein expression of the mRNA carried by the LNP in the mice was detected by the IVIS Spectrum small animal live imaging device.
At 24 h, the LNP formulations prepared from all compounds had been metabolized in the liver and had no protein expression.

[4] = tested on: female BALB/C mice; assay: Live imaging in mice: protein expression of Fluc-mRNA delivered by LNP formulations; type: in vivo; details: for average radiation intensity, times that of ALC-0315: comparator ALC-0315; for average radiation intensity, times that of HHMA: comparator HHMA; for average radiation intensity, times that of SM-102: comparator SM-102; for expression of mRNA in mice, times that of YK-302: comparator YK-302; for expression amount, times that of YK-309: comparator YK-309; for expression amount, times that of YK-313: comparator YK-313; for expression amount, times that of YK-321: comparator YK-321; for average radiation intensity, times that of compound 21: comparator compound 21; for average radiation intensity, times that of compound 23: comparator compound 23
Procedure, shortened: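 Female BALB/C mice (4-6 weeks, 17-19 g) received LNP-formulated Fluc-mRNA […] intramuscularly. At 6 h, 24 h, 48 h and 7 d, luciferase substrate given intraperitoneally, and after 5 min average radiance measured by IVIS whole-body imaging.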

[5] = tested on: 293T cells; assay: Cell survival rate determination (CCK-8); type: cell-based
Procedure, shortened: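 293T cells plated at 10,000/well (96-well), adhered overnight, then exposed 24 h to Fluc-mRNA LNP (cationic:neutral:structured:PEG-lipid 49:10:39.5:1.5) or Lipofectamine 3000. Viability by CCK-8, 1 h incubation, absorbance at 450 nm.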

CCCCCCCCC(CCCCCCCC)COC(=O)CCCCCN(CCCCCC(=O)OCC(CCCCCCCC)CCCCCCCC)C[C@H](O)CN(C)CCO [YK-305, (R)-Bis(2-octyldecyl)-6,6′-((2-hydroxy-3-((2-hydroxyethyl)(methyl)amino)propyl)azanediyl)dihexanoate]
PDI (%) [1]: 10.7% | Particle size (nm) [1]: 191 nm | Relative light unit (RLU) ([2]; LNP formulation of Fluc-mRNA, 96-well plate, 24 hours): 27408734 RLU | Multiples (YK-305) ([2]; RLU of YK-305 / RLU of the lipid of the line): 1.00 | Multiples (YK-310) ([2]; RLU of YK-310 / RLU of the lipid of the line): 0.94 | Multiples (YK-312) ([2]; RLU of YK-312 / RLU of the lipid of the line): 0.74 | Multiples (YK-318) ([2]; RLU of YK-318 / RLU of the lipid of the line, Tables 5, 7, 11): 0.41 | Multiples (YK-319) ([2]; RLU of YK-319 / RLU of the lipid of the line, Tables 5, 7, 11): 0.89 | Ratio relative to SM-102 ([2]; RLU of the lipid / RLU of SM-102, times that of SM-102): 17.09 | cell transfection efficiency, times that of ALC-0315 ([2]; comparator ALC-0315): 13.48 times | cell transfection efficiency, times that of HHMA ([2]; comparator HHMA): 13.66 times | cell transfection efficiency, times that of Lipofectamine 3000 ([2]; comparator Lipofectamine 3000): 23.12 times | cell transfection efficiency, times that of YK-009 ([2]; comparator YK-009): 5.35 times | cell transfection efficiency, times that of YK-301 ([2]; comparator YK-301): 32.53 times | cell transfection efficiency, times that of YK-303 ([2]; comparator YK-303): 43.76 times | cell transfection efficiency, times that of YK-306 ([2]; comparator YK-306): 12.47 times | cell transfection efficiency, times that of YK-307 ([2]; comparator YK-307): 6.01 times | cell transfection efficiency, times that of YK-308 ([2]; comparator YK-308): 5.44 times | cell transfection efficiency, times that of YK-309 ([2]; comparator YK-309): ~210 times and 218.62 times and ~200 times | cell transfection efficiency, times that of YK-311 ([2]; comparator YK-311): 13.96 times | cell transfection efficiency, times that of YK-313 ([2]; comparator YK-313): 31.63 times | cell transfection efficiency, times that of YK-314 ([2]; comparator YK-314): 50.07 times | cell transfection efficiency, times that of YK-315 ([2]; comparator YK-315): 17.27 times | cell transfection efficiency, times that of YK-316 ([2]; comparator YK-316): 5.70 times | cell transfection efficiency, times that of YK-317 ([2]; comparator YK-317): 7.60 times | cell transfection efficiency, times that of YK-320 ([2]; comparator YK-320): 10.14 times | cell transfection efficiency, times that of YK-321 ([2]; comparator YK-321): 19.53 times and ~20 times | cell transfection efficiency, times that of compound 21 ([2]; comparator compound 21): 19.14 times | cell transfection efficiency, times that of compound 23 ([2]; comparator compound 23): 20.21 times | expression amount in the liver compared with ALC-0315 and SM-102 [3]: reduced | protein expression in the liver ([3]; intramuscular injection): had protein expression in the liver | average radiation intensity, times that of ALC-0315 ([4]; 6 h): 10.70 times | average radiation intensity, times that of HHMA ([4]; 6 h): 14.19 times | average radiation intensity, times that of SM-102 ([4]; 6 h): 13.18 times | expression of mRNA in mice, times that of YK-302 ([4]; 6 h): 633.70 times | expression amount, times that of YK-309 ([4]; 6 h): 140.67 times | expression amount, times that of YK-313 ([4]; 6 h): 20.89 times | expression amount, times that of YK-321 ([4]; 6 h): 17.92 times | average radiation intensity, times that of compound 21 ([4]; 6 h): 15.14 times | average radiation intensity, times that of compound 23 ([4]; 6 h): 15.68 times | average radiation intensity ([4]; 6 h after intramuscular injection): 9239340 | average radiation intensity, times that of ALC-0315 ([4]; 24 h): 14.82 times | average radiation intensity, times that of HHMA ([4]; 24 h): 23.54 times | average radiation intensity, times that of SM-102 ([4]; 24 h): 23.44 times | expression of mRNA in mice, times that of YK-302 ([4]; 24 h): 713.70 times | expression amount, times that of YK-309 ([4]; 24 h): 167.86 times | expression amount, times that of YK-313 ([4]; 24 h): 27.04 times | expression amount, times that of YK-321 ([4]; 24 h): 27.89 times | average radiation intensity, times that of compound 21 ([4]; 24 h): 25.70 times | average radiation intensity, times that of compound 23 ([4]; 24 h): 27.01 times | average radiation intensity ([4]; 24 h after intramuscular injection): 2823400 | average radiation intensity, times that of ALC-0315 ([4]; 48 h): 26.32 times | average radiation intensity, times that of HHMA ([4]; 48 h): 32.18 times | average radiation intensity, times that of SM-102 ([4]; 48 h): 32.19 times | expression amount, times that of YK-309 ([4]; 48 h): 159.93 times and ~160 times | expression amount, times that of YK-313 ([4]; 48 h): 40.99 times | expression amount, times that of YK-321 ([4]; 48 h): 28.65 times | average radiation intensity, times that of compound 21 ([4]; 48 h): 33.82 times | average radiation intensity, times that of compound 23 ([4]; 48 h): 31.63 times | average radiation intensity ([4]; 48 h after intramuscular injection): 1047720 | average radiation intensity, times that of ALC-0315 ([4]; 7 d): 18.02 times | average radiation intensity, times that of HHMA ([4]; 7 d): 21.63 times | average radiation intensity, times that of SM-102 ([4]; 7 d): 19.18 times | expression amount, times that of YK-309 ([4]; 7 d): 101.13 times and ~100 times | expression amount, times that of YK-313 ([4]; 7 d): 39.26 times | expression amount, times that of YK-321 ([4]; 7 d): 19.29 times | average radiation intensity, times that of compound 21 ([4]; 7 d): 19.71 times | average radiation intensity, times that of compound 23 ([4]; 7 d): 20.35 times | average radiation intensity ([4]; 7 d after intramuscular injection): 127015 | Cell survival rate (%) ([5]; LNP formulation of Fluc-mRNA, 24 hours, CCK-8): 82.18% | cell survival rate higher than ALC-0315 ([5]; difference of survival rates, comparator ALC-0315): 31.15% and ~30% | cell survival rate higher than HHMA ([5]; difference of survival rates, comparator HHMA): 15.71% and ~15% | cell survival rate higher than Lipofectamine 3000 ([5]; difference of survival rates, comparator Lipofectamine 3000): 57.17% | cell survival rate higher than SM-102 ([5]; difference of survival rates, comparator SM-102): 12.73% and ~12% | cell survival rate higher than YK-301 ([5]; difference of survival rates, comparator YK-301): 29.22% | cell survival rate higher than YK-302 ([5]; difference of survival rates, comparator YK-302): 65.75% and ~65% and ~50% | cell survival rate higher than YK-303 ([5]; difference of survival rates, comparator YK-303): 18.86% | cell survival rate higher than YK-304 ([5]; difference of survival rates, comparator YK-304): 48.02% | cell survival rate higher than YK-306 ([5]; difference of survival rates, comparator YK-306): 39.99% | cell survival rate higher than YK-307 ([5]; difference of survival rates, comparator YK-307): 21.04% | cell survival rate higher than YK-308 ([5]; difference of survival rates, comparator YK-308): 11.19% | cell survival rate higher than YK-309 ([5]; difference of survival rates, comparator YK-309): 50.57% | cell survival rate higher than YK-311 ([5]; difference of survival rates, comparator YK-311): 12.12% | cell survival rate higher than YK-313 ([5]; difference of survival rates, comparator YK-313): 13.25% | cell survival rate higher than YK-314 ([5]; difference of survival rates, comparator YK-314): 14.30% | cell survival rate higher than YK-315 ([5]; difference of survival rates, comparator YK-315): 10.90% | cell survival rate higher than YK-316 ([5]; difference of survival rates, comparator YK-316): 11.65% | cell survival rate higher than YK-317 ([5]; difference of survival rates, comparator YK-317): 23.00% and ~20% | cell survival rate higher than YK-320 ([5]; difference of survival rates, comparator YK-320): 11.110% | cell survival rate higher than YK-321 ([5]; difference of survival rates, comparator YK-321): 9.84% | cell survival rate higher than compound 21 ([5]; difference of survival rates, comparator compound 21): 11.97% | cell survival rate higher than compound 23 ([5]; difference of survival rates, comparator compound 23): 10.68%
